# Calls of active or inactive are those of the source. No cut-off for these calls is given here.
# Tests used:
# [1] = organism: Danio rerio; assay: Anti-melanogenic activity against zebra fish embryos assessed as proportion of embryos showing moderate decrease in melanogenesis at 25 uM measured after 48 hrs by stereomicroscope analysis relative to control; type: functional; set-up: scale not given: the % may be the effect or the level left
# [2] = organism: Danio rerio; assay: Anti-melanogenic activity against zebra fish embryos assessed as proportion of embryos showing profound decrease in melanogenesis at 50 uM measured after 48 hrs by stereomicroscope analysis relative to control; type: functional; set-up: scale not given: the % may be the effect or the level left
# [3] = Cytotoxicity against human A-375 cells assessed as cell viability at 20 uM incubated for 72 hrs by MTT assay relative to control; type: toxicity, cell-based; settings: read-out: Activity
# [4] = in vitro; settings: human, A-375 cells
# Description: Cytotoxicity against human A-375 cells assessed as reduction in cell viability incubated for 72 hrs by MTT assay
# [5] = organism: Danio rerio; assay: Anti-melanogenic activity against zebra fish embryos assessed as proportion of embryos showing profound decrease in melanogenesis at 25 uM measured after 48 hrs by stereomicroscope analysis relative to control; type: functional; set-up: scale not given: the % may be the effect or the level left
# [6] = Acute toxicity in zebra fish embryos assessed as lack of detachment of tail bud from yolk sac at 25 to 100 uM measured after 24 to 48 hrs by stereomicroscope analysis; set-up: species or system Danio rerio, Embryo; settings: zebrafish, dose lower 25 µM, time lower 24 hrs, dose upper 100 µM, time upper 48 hrs
# [7] = in vitro; settings: human, A-375 cells; remark: listed apart in the source
# Description: Cytotoxicity against human A-375 cells assessed as cell viability at 50 uM incubated for 72 hrs by MTT assay relative to control
# [8] = target: Mushroom tyrosinase (Agaricus bisporus) (UniProt O42713+Q00024+C7FF04+C7FF05); assay: Potency index, ratio of kojic acid IC50 to test compound IC50 for mushroom tyrosinase by spectrophotometric analysis
# [9] = Acute toxicity in zebra fish embryos assessed as coagulation of fertilized eggs measured at 25 to 100 uM measured after 24 to 48 hrs by stereomicroscope analysis; set-up: species or system Danio rerio; settings: zebrafish, dose lower 25 µM, time lower 24 hrs, dose upper 100 µM, time upper 48 hrs
# [10] = target: Mushroom tyrosinase (Agaricus bisporus, UniProt O42713+Q00024+C7FF04+C7FF05); assay: Inhibition of mushroom tyrosinase using L-DOPA as substrate preincubated with substrate for 10 mins followed by addition of enzyme and measured for 5 mins by spectrophotometric analysis
# [11] = organism: Danio rerio; assay: Anti-melanogenic activity against zebra fish embryos assessed as proportion of embryos showing moderate decrease in melanogenesis at 50 uM measured after 48 hrs by stereomicroscope analysis relative to control; type: functional; set-up: scale not given: the % may be the effect or the level left
# [12] = organism: Danio rerio; assay: Anti-melanogenic activity against zebra fish embryos assessed as proportion of embryos with none to mild moderate decrease in melanogenesis at 25 uM measured after 48 hrs by stereomicroscope analysis relative to control; type: functional; set-up: scale not given: the % may be the effect or the level left
# [13] = Acute toxicity in zebra fish embryos assessed as lack of somite formation at 25 to 100 uM measured after 24 to 48 hrs by stereomicroscope analysis; set-up: species or system Danio rerio; settings: zebrafish, dose lower 25 µM, time lower 24 hrs, dose upper 100 µM, time upper 48 hrs
# [14] = organism: Danio rerio; assay: Anti-melanogenic activity against zebra fish embryos assessed as proportion of embryos with none to mild moderate decrease in melanogenesis at 50 uM measured after 48 hrs by stereomicroscope analysis relative to control; type: functional; set-up: scale not given: the % may be the effect or the level left
# [15] = target: T1, Tyrosinase (Homo sapiens) (UniProt P14679); assay: Inhibition of tyrosinase activity in alpha-MSH stimulated human A-375 cells using L-DOPA as substrate at 20 uM by microplate reader analysis relative to control; type: cell-based
# T1 sequence (whole entry): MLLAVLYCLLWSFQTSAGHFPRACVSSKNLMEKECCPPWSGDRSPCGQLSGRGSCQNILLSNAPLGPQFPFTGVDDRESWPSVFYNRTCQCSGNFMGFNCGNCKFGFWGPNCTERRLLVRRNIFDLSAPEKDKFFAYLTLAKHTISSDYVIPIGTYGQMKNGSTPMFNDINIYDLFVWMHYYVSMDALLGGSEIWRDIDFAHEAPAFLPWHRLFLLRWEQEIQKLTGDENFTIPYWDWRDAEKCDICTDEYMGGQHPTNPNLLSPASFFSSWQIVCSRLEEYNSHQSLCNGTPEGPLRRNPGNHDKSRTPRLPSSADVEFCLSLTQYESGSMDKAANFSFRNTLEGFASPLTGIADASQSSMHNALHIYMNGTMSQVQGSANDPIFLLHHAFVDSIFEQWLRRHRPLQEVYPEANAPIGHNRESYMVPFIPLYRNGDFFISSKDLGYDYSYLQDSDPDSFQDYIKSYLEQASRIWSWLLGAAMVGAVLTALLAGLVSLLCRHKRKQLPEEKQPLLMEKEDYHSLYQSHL
# [16] = Acute toxicity in zebra fish embryos assessed as lack of heart beat at 25 to 100 uM measured after 24 to 48 hrs by stereomicroscope analysis; type: tissue-based, Danio rerio; settings: zebrafish, dose lower 25 µM, time lower 24 hrs, dose upper 100 µM, time upper 48 hrs
# [17] = Acute toxicity in zebra fish embryos assessed as lack of somite formation at 25 to 100 uM measured after 24 hrs by stereomicroscope analysis; set-up: species or system Danio rerio; settings: zebrafish, dose 25-100 µM
# [18] = Acute toxicity in zebra fish embryos assessed as lack of heart beat at 25 to 100 uM measured after 24 hrs by stereomicroscope analysis; type: tissue-based, Danio rerio; settings: zebrafish, dose 25-100 µM
# [19] = Acute toxicity in zebra fish embryos assessed as lack of detachment of tail bud from yolk sac at 25 to 100 uM measured after 24 hrs by stereomicroscope analysis; set-up: species or system Danio rerio, Embryo; settings: zebrafish, dose 25-100 µM
# [20] = Acute toxicity in zebra fish embryos assessed as strong malformation embryos at 100 uM measured after 48 hrs by stereomicroscope analysis; set-up: species or system Danio rerio; settings: zebrafish
# [21] = Acute toxicity in zebra fish embryos assessed as coagulation of fertilized eggs at 25 to 100 uM measured after 24 hrs by stereomicroscope analysis; set-up: species or system Danio rerio; settings: zebrafish, dose 25-100 µM
# [22] = target: T1, Tyrosinase (Homo sapiens); assay: Inhibition of tyrosinase activity in alpha-MSH stimulated human A-375 cells using L-DOPA as substrate at 20 uM by microplate reader analysis; type: cell-based
# [23] = Acute toxicity in zebra fish embryos assessed as death of organism measured at 25 to 100 uM measured after 24 hrs by stereomicroscope analysis; set-up: species or system Danio rerio; settings: zebrafish, dose 25-100 µM
# [24] = Acute toxicity in zebra fish embryos assessed as bradycardia at 25 to 100 uM measured after 48 hrs by stereomicroscope analysis; set-up: species or system Danio rerio; settings: zebrafish, dose 25-100 µM
# [25] = Acute toxicity in zebra fish embryos assessed as bradycardia at 25 to 100 uM measured after 24 hrs by stereomicroscope analysis; set-up: species or system Danio rerio; settings: zebrafish, dose 25-100 µM
# [26] = Acute toxicity in zebra fish embryos assessed as strong malformation embryos at 25 to 100 uM measured after 48 hrs by stereomicroscope analysis; set-up: species or system Danio rerio; settings: zebrafish, dose 25-100 µM
# [27] = Acute toxicity in zebra fish embryos assessed as alteration in heart functioning at 50 uM measured after 24 hrs by stereomicroscopic analysis; type: tissue-based, Danio rerio; settings: zebrafish
# [28] = Acute toxicity in zebra fish embryos assessed as pericardial edema and embryonic lethality at 50 uM measured after 24 hrs by stereomicroscopic analysis; set-up: species or system Danio rerio; settings: zebrafish
# [29] = Acute toxicity in zebra fish embryos assessed as death of organism at 50 uM measured after 48 hrs by stereomicroscope analysis; set-up: species or system Danio rerio; settings: zebrafish
SMILES,Activity [1],Activity [2],"viability at 72 h, 20 µM [3]",GI50 at 72 h [4],Activity [5],"viability at 72 h, 50 µM [7]",Ratio IC50 [8],IC50 [10],Activity [11],Activity [12],Activity [14],also measured
COc1ccc(/C=C/C(=O)N2CCN(c3ccc(F)c(Cl)c3)CC2)cc1[N+](=O)[O-],60%,10%,98%,> 50 µM,15%,93.5%,30,0.51 µM,45%,25%,45%,Activity [6]: Non-Toxic; Activity [9]: Non-Toxic; Activity [13]: Non-Toxic; inhibition [15]: 60%; Activity [16]: Non-Toxic
O=C(/C=C/c1cccc([N+](=O)[O-])c1)N1CCN(c2ccc(F)c(Cl)c2)CC1,0%,0%,98%,> 50 µM,0%,87.2%,30,0.16 µM,15%,100%,85%,Activity [17]: Non-Toxic; Activity [18]: Non-Toxic; Activity [19]: Non-Toxic; Activity [20]: 6.6%; Activity [21]: Non-Toxic
COc1cccc(/C=C/C(=O)N2CCN(c3ccc(F)c(Cl)c3)CC2)c1Cl,15%,20%,98%,> 50 µM,0%,69.6%,150,0.12 µM,30%,85%,50%,Activity [18]: Toxic; inhibition [22]: Active; Activity [23]: Toxic
COc1cccc(/C=C/C(=O)N2CCN(c3ccc(F)c(Cl)c3)CC2)c1,0%,0%,98%,> 50 µM,0%,54%,30,0.25 µM,0%,100%,100%,Activity [6]: Non-Toxic; Activity [9]: Non-Toxic; inhibition [22]: Active; Activity [13]: Non-Toxic; Activity [16]: Non-Toxic
O=C(/C=C/c1cccc([N+](=O)[O-])c1)N1CCN(c2ccc(F)cc2)CC1,–,–,–,–,–,–,–,23.32 µM,–,–,–,–
O=C(/C=C/c1ccc(Cl)cc1)N1CCN(c2ccc(F)c(Cl)c2)CC1,0%,0%,98%,43.8 µM,0%,–,30,0.33 µM,5%,0%,95%,Activity [17]: Non-Toxic; Activity [24]: Toxic; Activity [18]: Non-Toxic; Activity [19]: Non-Toxic; Activity [21]: Non-Toxic
COc1ccc(/C=C/C(=O)N2CCN(c3ccc(F)c(F)c3)CC2)cc1[N+](=O)[O-],–,–,–,–,–,–,–,15.47 µM,–,–,–,–
O=C(/C=C/c1ccc(Cl)cc1)N1CCN(c2ccc(F)cc2)CC1,–,–,–,–,–,–,–,14.09 µM,–,–,–,–
COc1ccc(/C=C/C(=O)N2CCN(c3ccc(F)c(Cl)c3)CC2)cc1N,20%,30%,45%,16.1 µM,0%,–,30,0.53 µM,20%,80%,50%,Activity [6]: Non-Toxic; Activity [9]: Non-Toxic; Activity [13]: Non-Toxic; Activity [16]: Non-Toxic
O=C(/C=C/c1ccc2c(c1)OCO2)N1CCN(c2cccc(Cl)c2)CC1,–,–,–,–,–,–,–,34.25 µM,–,–,–,–
COc1ccc(/C=C/C(=O)N2CCN(c3ccc(F)c(F)c3)CC2)cc1N,–,–,–,–,–,–,–,6.84 µM,–,–,–,–
COc1ccc(Cl)cc1/C=C/C(=O)N1CCN(c2ccc(F)cc2)CC1,–,–,–,–,–,–,–,27.4 µM,–,–,–,–
COc1ccc(/C=C/C(=O)N2CCN(c3cccc(F)c3)CC2)cc1N,–,–,–,–,–,–,–,> 100 µM,–,–,–,–
COc1ccc(/C=C/C(=O)N2CCN(c3ccc(F)cc3)CC2)cc1N,–,–,–,–,–,–,–,17.85 µM,–,–,–,–
COc1ccc(/C=C/C(=O)N2CCN(Cc3ccccc3)CC2)cc1N,–,–,–,–,–,–,–,55.64 µM,–,–,–,–
O=C(/C=C/c1ccc([N+](=O)[O-])cc1)N1CCN(c2ccc(F)c(Cl)c2)CC1,–,–,98%,> 50 µM,–,85.4%,30,0.35 µM,–,–,–,Activity [25]: Toxic; Activity [26]: 13.3%
COc1ccc(Cl)cc1/C=C/C(=O)N1CCN(c2ccc(F)c(Cl)c2)CC1,–,–,98%,> 50 µM,–,72.6%,30,0.46 µM,–,–,–,Activity [17]: Non-Toxic; Activity [27]: 95%; Activity [24]: Toxic; Activity [18]: Non-Toxic; Activity [19]: Non-Toxic; Activity [28]: 5%; Activity [29]: Toxic; Activity [21]: Non-Toxic
COc1cccc(/C=C/C(=O)N2CCN(c3ccc(F)cc3)CC2)c1,–,–,–,–,–,–,–,9.96 µM,–,–,–,–
